Patent publication US20230089867A1, “CYCLIC PENTAMER COMPOUNDS AS PROPROTEIN CONVERTASE SUBTILISIN/KEXIN TYPE 9 (PCSK9) INHIBITORS FOR THE TREATMENT OF METABOLIC DISORDER” (Novartis AG, priority 2018, published 2023)

Biological target: human PCSK9 (Homo sapiens, UniProt Q8NBP7)
Test: PCSK9 ligand binding TR-FRET assay (interference with binding of human PCSK9 to human LDLR)
Conditions: for Max % inhibition: PCSK9 FRET assay, efficacy (Amax), 100% = 1 uM unlabeled human PCSK9, 0% = DMSO; for IC50: TR-FRET, human PCSK9 Alexa Fluor 647 / human LDLR extracellular domain-Europium Kryptate, read-out: PCSK9 FRET Assay IC50
Summary of the method: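 Threefold compound dilutions were pre-incubated 30 min with PCSK9, after which 4 nM Europium Kryptate-tagged human LDLR ectodomain was added for a further 2 h.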

Sequence of human PCSK9 (Q8NBP7 153-692): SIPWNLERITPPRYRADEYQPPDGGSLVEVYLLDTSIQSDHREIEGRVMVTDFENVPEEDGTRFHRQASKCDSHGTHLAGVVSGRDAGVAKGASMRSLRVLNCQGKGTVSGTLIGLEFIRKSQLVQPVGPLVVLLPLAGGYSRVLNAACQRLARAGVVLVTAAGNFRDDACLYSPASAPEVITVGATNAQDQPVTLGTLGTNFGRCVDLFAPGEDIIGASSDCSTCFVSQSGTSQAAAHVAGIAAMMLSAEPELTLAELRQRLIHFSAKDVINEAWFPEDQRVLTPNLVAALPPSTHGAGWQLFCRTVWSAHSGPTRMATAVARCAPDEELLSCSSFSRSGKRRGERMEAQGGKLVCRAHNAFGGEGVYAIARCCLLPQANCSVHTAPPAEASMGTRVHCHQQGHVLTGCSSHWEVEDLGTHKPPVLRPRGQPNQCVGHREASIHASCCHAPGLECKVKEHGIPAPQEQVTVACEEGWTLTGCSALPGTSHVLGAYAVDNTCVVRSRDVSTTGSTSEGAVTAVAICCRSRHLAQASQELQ
Sequence of human PCSK9 (Q8NBP7 31-152 partner limits assumed): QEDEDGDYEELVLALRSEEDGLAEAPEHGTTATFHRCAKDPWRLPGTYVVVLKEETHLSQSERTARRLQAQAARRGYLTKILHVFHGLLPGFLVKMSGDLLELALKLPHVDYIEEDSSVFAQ

Compound | Max % inhibition [%] | IC50 [nM]
COC[C@@H]1NC(=O)[C@H](C)N(Cc2ccc(Oc3ccc(-c4cnc(CN(C)C)n4C)cc3)cc2F)C(=O)C[C@@H](Cc2ccccc2)C(=O)N(C)C2CCCCC2NC(=O)C[C@H](Cc2ccc(Cl)cc2)N(C)C1=O (stereo in doubt) [Compound 15, (4S,7S,10S,14R,16aS,20aS)-14-benzyl-4-(4-chlorobenzyl)-11-(4-(4-(2-((dimethylamino)methyl)-1-methyl-1H-imidazol-5-yl)phenoxy)-2-fluorobenzyl)-7-(methoxymethyl)-5,10,16-trimethylhexadecahydrobenzo[l][1,4,7,11,14]pentaazacyclooctadecine-2,6,9,12,15(3H)-pentaone] | 48.77 | 331
CNCC[C@H]1C(=O)N[C@@H](COC)C(=O)N(C)[C@@H](Cc2ccc(Cl)cc2)CC(=O)N[C@H]2CCCC[C@@H]2N(C)C(=O)[C@H](Cc2ccccc2)CC(=O)N1Cc1ccc(Cl)cc1Oc1ccc(-c2cnc(CN(C)C)n2C)cc1 [Compound 3, (4S,7S,10S,14R,16aS,20aS)-14-benzyl-11-(4-chloro-2-(4-(2-((dimethylamino)methyl)-1-methyl-1H-imidazol-5-yl)phenoxy)benzyl)-4-(4-chlorobenzyl)-7-(methoxymethyl)-5,16-dimethyl-10-(2-(methylamino)ethyl)hexadecahydrobenzo[l][1,4,7,11,14]pentaazacyclooctadecine-2,6,9,12,15(3H)-pentaone] | 95.68 | 1.3
COC[C@@H]1NC(=O)[C@H](CCN2CCOCC2)N(Cc2ccc(Cl)cc2Oc2ccc(-c3cnc(CN(C)C)n3C)cc2)C(=O)C[C@@H](Cc2ccccc2)C(=O)N(C)[C@@H](C)[C@H](C)NC(=O)C[C@H](Cc2ccc(Cl)cc2)N(C)C1=O [Compound 94, (2S,5S,8S,12S,13S,16R)-16-benzyl-1-(4-chloro-2-(4-(2-((dimethylamino)methyl)-1-methyl-1H-imidazol-5-yl)phenoxy)benzyl)-8-(4-chlorobenzyl)-5-(methoxymethyl)-7,12,13,14-tetramethyl-2-(2-morpholinoethyl)-1,4,7,11,14-pentaazacyclooctadecane-3,6,10,15,18-pentaone] | 104.90 | 2.4
CCOC(=O)CCCN(CCCC(=O)OCC)CCC[C@H]1C(=O)N[C@@H](COC)C(=O)N(C)[C@@H](Cc2ccc(Cl)cc2)CC(=O)N[C@H]2CCCC[C@@H]2N(C)C(=O)[C@H](Cc2ccccc2)CC(=O)N1Cc1ccc(Cl)cc1Oc1ccc(-c2cnc(CN(C)C)n2C)cc1 [Compound 267, diethyl 4,4′-((3-((4S,7S,10S,14R,16aS,20aS)-14-benzyl-11-(4-chloro-2-(4-(2-((dimethylamino)methyl)-1-methyl-1H-imidazol-5-yl)phenoxy)benzyl)-4-(4-chlorobenzyl)-7-(methoxymethyl)-5,16-dimethyl-2,6,9,12,15-pentaoxodocosahydrobenzo[l][1,4,7,11,14]pentaazacyclooctadecin-10-yl)propyl)azanediyl)dibutanoate] | 93.76 | 7.1
COC[C@@H]1NC(=O)[C@H](C)N(Cc2ccc(Cl)cc2Oc2ccc(-c3cnc4n3CCN(C(=O)C3CCNC3)C4)cc2)C(=O)C[C@@H](Cc2ccccc2)C(=O)N(C)[C@@H](C)CNC(=O)C[C@H](Cc2ccc(Cl)cc2)N(C)C1=O.O=C(O)C(F)(F)F (stereo partly drawn) [Compound 124, (2S,5S,8S,13S,16R)-16-benzyl-1-(4-chloro-2-(4-(7-(pyrrolidine-3-carbonyl)-5,6,7,8-tetrahydroimidazo[1,2-a]pyrazin-3-yl)phenoxy)benzyl)-8-(4-chlorobenzyl)-5-(methoxymethyl)-2,7,13,14-tetramethyl-1,4,7,11,14-pentaazacyclooctadecane-3,6,10,15,18-pentaone trifluoroacetate] | 100.50 | 3.8
COC[C@@H]1NC(=O)[C@H](C)N(Cc2ccc(Cl)cc2Oc2ccc(-c3cnc4c(c3)CN(C(=O)[C@H]3CCNC3)CC4)cc2)C(=O)C[C@@H](Cc2ccccc2)C(=O)N(C)[C@@H](C)CNC(=O)C[C@H](Cc2ccc(Cl)cc2)N(C)C1=O [Compound 176, (2S,5S,8S,13S,16R)-16-benzyl-1-(4-chloro-2-(4-(6-((S)-pyrrolidine-3-carbonyl)-5,6,7,8-tetrahydro-1,6-naphthyridin-3-yl)phenoxy)benzyl)-8-(4-chlorobenzyl)-5-(methoxymethyl)-2,7,13,14-tetramethyl-1,4,7,11,14-pentaazacyclooctadecane-3,6,10,15,18-pentaone] | 70.99 | 4.3
COC[C@@H]1NC(=O)[C@H](C)N(Cc2ccc(Cl)cc2Oc2cccc(C(=O)NC3CCN(C)CC3)c2)C(=O)C[C@@H](Cc2ccccc2)C(=O)N(C)[C@@H](C)CNC(=O)C[C@H](Cc2ccc(Cl)cc2)N(C)C1=O [Compound 118, 3-(2-(((2S,5S,8S,13S,16R)-16-benzyl-8-(4-chlorobenzyl)-5-(methoxymethyl)-2,7,13,14-tetramethyl-3,6,10,15,18-pentaoxo-1,4,7,11,14-pentaazacyclooctadecan-1-yl)methyl)-5-chlorophenoxy)-N-(1-methylpiperidin-4-yl)benzamide] | 65.13 | 24.6
COC[C@@H]1NC(=O)[C@H](C)N(Cc2ccc(Cl)cc2Oc2ccc(-n3cnc(CN(C)C)c3C)cc2)C(=O)C[C@@H](Cc2ccccn2)C(=O)N(C)[C@H]2CCCC[C@@H]2NC(=O)C[C@H](Cc2ccc(Cl)cc2)N(C)C1=O [Compound 105, (4S,7S,10S,14R,16aS,20aS)-11-(4-chloro-2-(4-(4-((dimethylamino)methyl)-5-methyl-1H-imidazol-1-yl)phenoxy)benzyl)-4-(4-chlorobenzyl)-7-(methoxymethyl)-5,10,16-trimethyl-14-(pyridin-2-ylmethyl)hexadecahydrobenzo[l][1,4,7,11,14]pentaazacyclooctadecine-2,6,9,12,15(3H)-pentaone] | 104.44 | 1
COCC(=O)N1CCc2ncc(-c3ccc(Oc4cc(Cl)ccc4CN4C(=O)C[C@@H](Cc5ccccc5)C(=O)N(C)[C@@H](C)CNC(=O)C[C@H](Cc5ccc(Cl)cc5)N(C)C(=O)[C@H](COC)NC(=O)[C@@H]4C)cc3)cc2C1 [Compound 117, (2S,5S,8S,13S,16R)-16-benzyl-1-(4-chloro-2-(4-(6-(2-methoxyacetyl)-5,6,7,8-tetrahydro-1,6-naphthyridin-3-yl)phenoxy)benzyl)-8-(4-chlorobenzyl)-5-(methoxymethyl)-2,7,13,14-tetramethyl-1,4,7,11,14-pentaazacyclooctadecane-3,6,10,15,18-pentaone] | 67.25 | 4.2

Results, then the molecule that gave them:

Max % inhibition [%] | IC50 [nM] | Compound
99.91 | 0.6 | COC[C@@H]1NC(=O)[C@H](C)N(Cc2ccc(Cl)cc2Oc2ccc(-c3cnc(CN4CCCC4)n3C)cc2)C(=O)C[C@@H](Cc2ccccc2F)C(=O)N(C)[C@@H](C)CNC(=O)C[C@H](Cc2ccc(Cl)cc2)N(C)C1=O [Compound 229, (2S,5S,8S,13S,16R)-1-(4-chloro-2-(4-(1-methyl-2-(pyrrolidin-1-ylmethyl)-1H-imidazol-5-yl)phenoxy)benzyl)-8-(4-chlorobenzyl)-16-(2-fluorobenzyl)-5-(methoxymethyl)-2,7,13,14-tetramethyl-1,4,7,11,14-pentaazacyclooctadecane-3,6,10,15,18-pentaone]
99.28 | 0.9 | COC[C@@H]1NC(=O)[C@H](C)N(Cc2ccc(C)cc2Oc2ccc(-c3cnc(CN(C)C)n3C)cc2)C(=O)C[C@@H](Cc2ccccc2)C(=O)N(C)[C@@H](C)CNC(=O)C[C@H](Cc2ccc(Cl)cc2)N(C)C1=O [Compound 240, (2S,5S,8S,13S,16R)-16-benzyl-8-(4-chlorobenzyl)-1-(2-(4-(2-((dimethylamino)methyl)-1-methyl-1H-imidazol-5-yl)phenoxy)-4-methylbenzyl)-5-(methoxymethyl)-2,7,13,14-tetramethyl-1,4,7,11,14-pentaazacyclooctadecane-3,6,10,15,18-pentaone]
104.70 | 8.8 | COC[C@@H]1NC(=O)[C@H](C)N(Cc2ccc(Cl)cc2Oc2ccc(-c3cnc(CN(C)C)n3C)cc2)C(=O)CN2C[C@H](CNC(=O)C[C@H](Cc3ccc(Cl)cc3)N(C)C1=O)N(C)C2=O [Compound 227, (5S,8S,11S,16S)-4-(4-chloro-2-(4-(2-((dimethylamino)methyl)-1-methyl-1H-imidazol-5-yl)phenoxy)benzyl)-11-(4-chlorobenzyl)-8-(methoxymethyl)-5,10,17-trimethyl-1,4,7,10,14,17-hexaazabicyclo[14.2.1]nonadecane-3,6,9,13,18-pentaone]
108.38 | 3.7 | COCC[C@H]1C(=O)N[C@@H](COC)C(=O)N(C)[C@@H](Cc2ccc(Cl)cc2)CC(=O)NC[C@H](C)N(C)C(=O)[C@H](Cc2ccccc2)CC(=O)N1Cc1ccc(Cl)cc1Oc1ccc(-c2cnc(CN(C)C)n2C)cc1 [Compound 156, (2S,5S,8S,13S,16R)-16-benzyl-1-(4-chloro-2-(4-(2-((dimethylamino)methyl)-1-methyl-1H-imidazol-5-yl)phenoxy)benzyl)-8-(4-chlorobenzyl)-2-(2-methoxyethyl)-5-(methoxymethyl)-7,13,14-trimethyl-1,4,7,11,14-pentaazacyclooctadecane-3,6,10,15,18-pentaone]
98.82 | 1.1 | COC[C@@H]1NC(=O)[C@H](C)N(Cc2ccc(Cl)cc2Oc2ccc(-c3cnc(CN4CCCC4)n3C)cc2)C(=O)C[C@@H](Cc2ccc(F)cc2F)C(=O)N(C)[C@@H](C)CNC(=O)C[C@H](Cc2ccc(Cl)cc2)N(C)C1=O [Compound 22, (2S,5S,8S,13S,16R)-1-(4-chloro-2-(4-(1-methyl-2-(pyrrolidin-1-ylmethyl)-1H-imidazol-5-yl)phenoxy)benzyl)-8-(4-chlorobenzyl)-16-(2,4-difluorobenzyl)-5-(methoxymethyl)-2,7,13,14-tetramethyl-1,4,7,11,14-pentaazacyclooctadecane-3,6,10,15,18-pentaone]
